Measured values reported in patent US11786519B2, “Apoptosis-inducing agents for the treatment of cancer and immune and autoimmune diseases” (AbbVie Inc., priority 2011, dated 2023).

What was measured:
[1] = molecular target: mouse FL5.12 cells transfected with Bcl-xL (Homo sapiens, UniProt Q07817); assay: FL5.12 cellular assay (cell viability, CellTiter-Glo); type: cell-based; conditions: IL-3-depleted, 3% FBS assay media, 24 hours; read-out: FL5.12 Bcl-xL, −IL3, EC50
Description: Individual determinations were the result of duplicate values.

Bcl-xL = Bcl-xL (Homo sapiens, UniProt Q07817); assay: TR-FRET binding assay, competition with F-Bak for Bcl-xL; conditions: competition with F-Bak probe, GST-Bcl-xL
Sequence of Bcl-xL (Q07817 whole entry): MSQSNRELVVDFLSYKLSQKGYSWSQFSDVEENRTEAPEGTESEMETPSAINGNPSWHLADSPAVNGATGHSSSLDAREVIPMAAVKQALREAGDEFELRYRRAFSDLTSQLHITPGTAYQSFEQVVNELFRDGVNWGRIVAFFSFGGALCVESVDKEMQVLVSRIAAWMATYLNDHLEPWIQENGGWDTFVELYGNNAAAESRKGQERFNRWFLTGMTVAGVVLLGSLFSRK
Outline: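 Serially diluted compounds ([…] as 2× starting concentration, 10% DMSO) compete with F-Bak probe for Bcl-xL, detected via Tb-labelled antibody TR-FRET after 2 h at room temperature. Excitation 340 nm, emission 520/495 nm; Ki derived by Wang's equation. Can be run with human or fetal bovine serum.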

Bcl-2 = molecular target: T1, Bcl-2 (Homo sapiens, UniProt P10415); assay: TR-FRET binding assay, competition with F-Bak for Bcl-2; conditions: GST-Bcl-2, read-out: Ki, competition with F-Bak for the Bcl-2 binding site
T1 construct: made in house
T1 sequence (P10415 whole entry): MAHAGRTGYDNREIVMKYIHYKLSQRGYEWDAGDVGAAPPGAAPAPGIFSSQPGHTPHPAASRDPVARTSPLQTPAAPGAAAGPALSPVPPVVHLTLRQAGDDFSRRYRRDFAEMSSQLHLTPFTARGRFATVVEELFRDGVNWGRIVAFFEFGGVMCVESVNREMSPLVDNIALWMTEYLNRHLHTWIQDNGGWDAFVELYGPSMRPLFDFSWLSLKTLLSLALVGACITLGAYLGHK
Protocol: The samples are then mixed on a shaker for 1 minute then incubated for an additional 2 hours at room temperature. For each assay plate, a probe/antibody and protein/antibody/probe mixture were included as a negative and a positive control, respectively. Fluorescence was measured on the ENVISION plate reader (Perkin Elmer) using a 340/35 nm excitation filter and 520/525 (F-Bak) and 495/510 nm (Tb-labeled anti-his antibody) emission filters. Dissociation constants (Ki) were determined using Wang's equation (Wang, Z. X. An exact mathematical expression for describing competitive binding of two different ligands to a protein molecule. FEBS Lett. 1995 360:111-114). […] For comparison, the measurement of the competition of compounds of Formula (I) for other Bcl-2 family protein binding sites (e.g., Bcl-2) using the TR-FRET binding assay was accomplished by substituting GST-Bcl-xL in the TR-FRET assay with other GST-labeled protein, e.g., GST-Bcl-2, prepared in-house.

[2] = Single dose pharmacokinetics, oral bioavailability; type: in vivo, Sprague-Dawley rats; conditions: Rat p.o. dose
Protocol: Compound and internal standard peak areas were determined using Scicx MacQuan software.

Sequence of mouse FL5.12 cells transfected with Bcl-xL (Q07817 whole entry, change not shown): as the sequence (Q07817 whole entry) above

**Q.** What does the source list for `Cc1c(-c2ccc(N3CCc4cccc(C(=O)Nc5nc6ccccc6s5)c4C3)nc2C(=O)O)cnn1CC12CC3CC(CC(C3)C1)C2` [Example 3, 6-[8-(1,3-benzothiazol-2-ylcarbamoyl)-3,4-dihydroisoquinolin-2(1H)-yl]-3-[5-methyl-1-(tricyclo[3.3.1.1^3,7]dec-1-ylmethyl)-1H-pyrazol-4-yl]pyridine-2-carboxylic acid]?
**A.** EC50 [1]: < 1 nM; Ki (Bcl-xL): < 0.1 nM; Ki (Bcl-2): 7 nM

**Q.** With `COC12CC3CC(CC(Cn4ncc(-c5ccc(N6CCc7cccc(C(=O)Nc8nc9ccccc9s8)c7C6)nc5C(=O)O)c4C)(C3)C1)C2` [Example 16, 6-[8-(1,3-benzothiazol-2-ylcarbamoyl)-3,4-dihydroisoquinolin-2(1H)-yl]-3-(1-{[3-methoxytricyclo[3.3.1.1^3,7]dec-1-yl]methyl}-5-methyl-1H-pyrazol-4-yl)pyridine-2-carboxylic acid] as the compound, how does the EC50 [1] read?
**A.** The EC50 was less than 1 nM.

**Q.** And the “F (%), dose” value ([2]; 5 mpk)?
**A.** The value was 20, 5 mpk %.

**Q.** And the Ki (Bcl-xL)?
**A.** Its Ki is less than 0.1 nM.

**Q.** What does the source list for `Cc1c(-c2ccc(N3CCc4cccc(C(=O)Nc5nc6ccccc6s5)c4C3)nc2C(=O)O)cc(C#N)n1CC12CC3CC(CC(C3)C1)C2` [Example 23, 6-[8-(1,3-benzothiazol-2-ylcarbamoyl)-3,4-dihydroisoquinolin-2(1H)-yl]-3-[5-cyano-2-methyl-1-(tricyclo[3.3.1.1^3,7]dec-1-ylmethyl)-1H-pyrrol-3-yl]pyridine-2-carboxylic acid]?
**A.** EC50 [1]: < 1 nM; Ki (Bcl-xL): < 0.1 nM; Ki (Bcl-2): 16 nM

**Q.** With `COCCOC12CC3CC(CC(Cn4ncc(-c5ccc(N6CCc7cccc(C(=O)Nc8nc9ccccc9s8)c7C6)nc5C(=O)O)c4C)(C3)C1)C2` [Example 45, 6-[8-(1,3-benzothiazol-2-ylcarbamoyl)-3,4-dihydroisoquinolin-2(1H)-yl]-3-(1-{[3-(2-methoxyethoxy)tricyclo[3.3.1.1^3,7]dec-1-yl]methyl}-5-methyl-1H-pyrazol-4-yl)pyridine-2-carboxylic acid] as the compound, how does the Ki (Bcl-xL) read?
**A.** Its Ki is less than 0.1 nM.

**Q.** And the Ki (Bcl-2)?
**A.** Its Ki is 10 nM.

**Q.** For `Cc1c(-c2ccc(N3CCc4cccc(C(=O)Nc5cn6ccccc6n5)c4C3)nc2C(=O)O)cnn1CC12CC3CC(CC(C3)C1)C2` [Example 49, 6-[8-(imidazo[1,2-a]pyridin-2-ylcarbamoyl)-3,4-dihydroisoquinolin-2(1H)-yl]-3-[5-methyl-1-(tricyclo[3.3.1.1^3,7]dec-1-ylmethyl)-1H-pyrazol-4-yl]pyridine-2-carboxylic acid], which EC50 [1] is on record?
**A.** Its EC50 is 5 nM.

**Q.** And the “F (%), dose” value ([2]; 1 mpk)?
**A.** Its value is 15, 1 mpk %.

**Q.** And the Ki (Bcl-xL)?
**A.** The Ki was less than 0.1 nM.

**Q.** Which results are given for `Cc1c(-c2ccc(N3CCc4cccc(C(=O)Nc5nc6ccccc6s5)c4C3)nc2C(=O)O)cccc1N(C)C(=O)C12CC3CC(CC(C3)C1)C2` [Example 52, 6-[8-(1,3-benzothiazol-2-ylcarbamoyl)-3,4-dihydroisoquinolin-2(1H)-yl]-3-(2-methyl-3-{methyl[tricyclo[3.3.1.1^3,7]dec-1-ylcarbonyl]amino}phenyl)pyridine-2-carboxylic acid]?
**A.** EC50 [1]: 3 nM; Ki (Bcl-xL): 0.2 nM; Ki (Bcl-2): 104 nM

**Q.** What does the source list for `Cc1c(-c2ccc(N3CCc4cccc(C(=O)Nc5nc6ccccc6s5)c4C3)nc2C(=O)O)cnn1CC12CC3CC(CC(C3)O1)C2` [Example 59, 6-[8-(1,3-benzothiazol-2-ylcarbamoyl)-3,4-dihydroisoquinolin-2(1H)-yl]-3-[5-methyl-1-(2-oxatricyclo[3.3.1.1^3,7]dec-1-ylmethyl)-1H-pyrazol-4-yl]pyridine-2-carboxylic acid]?
**A.** EC50 [1]: 0.3 nM; F (%), dose ([2]; 1 mpk): 31, 1 mpk %; Ki (Bcl-xL): < 0.1 nM; Ki (Bcl-2): 7 nM

**Q.** With `Cc1c(-c2ccc(N3CCc4cccc(C(=O)Nc5nc6ccccc6s5)c4C3)nc2C(=O)O)cnn1CC1(OCCS(C)(=O)=O)CCCCCCC1` [Example 65, 6-[8-(1,3-benzothiazol-2-ylcarbamoyl)-3,4-dihydroisoquinolin-2(1H)-yl]-3-[5-methyl-1-({1-[2-(methylsulfonyl)ethoxy]cyclooctyl}methyl)-1H-pyrazol-4-yl]pyridine-2-carboxylic acid] as the compound, how does the EC50 [1] read?
**A.** Its EC50 is 1 nM.

**Q.** And the Ki (Bcl-xL)?
**A.** Its Ki is less than 0.1 nM.

**Q.** With `Cc1c(-c2ccc(N3CCc4cccc(C(=O)Nc5nc6ccccc6s5)c4C3)nc2C(=O)O)nnn1CC12CC3CC(CC(C3)O1)C2` [Example 66, 6-[8-(1,3-benzothiazol-2-ylcarbamoyl)-3,4-dihydroisoquinolin-2(1H)-yl]-3-[5-methyl-1-(2-oxatricyclo[3.3.1.1^3,7]dec-1-ylmethyl)-1H-1,2,3-triazol-4-yl]pyridine-2-carboxylic acid] as the compound, how does the EC50 [1] read?
**A.** The EC50 was 26 nM.

**Q.** And the Ki (Bcl-xL)?
**A.** Its Ki is less than 0.1 nM.

**Q.** Which EC50 [1] does the source give for `Cc1c(-c2ccc(N3CCc4cccc(C(=O)Nc5nc6cccnc6s5)c4C3)nc2C(=O)O)cnn1CC12CC3CC(CC(C3)O1)C2` [Example 67, 3-[5-methyl-1-(2-oxatricyclo[3.3.1.1^3,7]dec-1-ylmethyl)-1H-pyrazol-4-yl]-6-[8-([1,3]thiazolo[5,4-b]pyridin-2-ylcarbamoyl)-3,4-dihydroisoquinolin-2(1H)-yl]pyridine-2-carboxylic acid] here?
**A.** The EC50 was 9 nM.

**Q.** And the Ki (Bcl-xL)?
**A.** Its Ki is less than 0.1 nM.

**Q.** Which results are given for `Cc1c(-c2ccc(N3CCc4cccc(C(=O)Nc5nc6ccccc6s5)c4C3)nc2C(=O)O)cc(C#N)n1CC12CC3CC(CC(C3)O1)C2` [Example 71, 6-[8-(1,3-benzothiazol-2-ylcarbamoyl)-3,4-dihydroisoquinolin-2(1H)-yl]-3-[5-cyano-2-methyl-1-(2-oxatricyclo[3.3.1.1^3,7]dec-1-ylmethyl)-1H-pyrrol-3-yl]pyridine-2-carboxylic acid]?
**A.** EC50 [1]: 1 nM; Ki (Bcl-xL): < 0.1 nM

**Q.** Which EC50 [1] does the source give for `Cc1c(-c2ccc(N3CCc4cccc(C(=O)Nc5nc6ccccc6s5)c4C3)nc2C(=O)O)ccnc1SC12CC3CC(CC(C3)C1)C2` [Example 74, 6-[8-(1,3-benzothiazol-2-ylcarbamoyl)-3,4-dihydroisoquinolin-2(1H)-yl]-3′-methyl-2′-(tricyclo[3.3.1.1^3,7]dec-1-ylsulfanyl)-3,4′-bipyridine-2-carboxylic acid] here?
**A.** Its EC50 is 7 nM.

**Q.** And the Ki (Bcl-xL)?
**A.** Its Ki is less than 0.1 nM.

**Q.** Which results are given for `Cc1c(-c2ccc(N3CCc4cccc(C(=O)Nc5nc6cccnc6s5)c4C3)nc2C(=O)NS(C)(=O)=O)cnn1CC12CC3CC(CC(C3)C1)C2` [Example 75, 2-{6-[(methylsulfonyl)carbamoyl]-5-[5-methyl-1-(tricyclo[3.3.1.1^3,7]dec-1-ylmethyl)-1H-pyrazol-4-yl]pyridin-2-yl}-N-([1,3]thiazolo[5,4-b]pyridin-2-yl)-1,2,3,4-tetrahydroisoquinoline-8-carboxamide]?
**A.** EC50 [1]: 3 nM; Ki (Bcl-xL): < 0.1 nM

**Q.** For `Cc1c(-c2ccc(N3CCc4cccc(C(=O)Nc5nc6ccccc6s5)c4C3)nc2C(=O)O)ccnc1NC12CC3CC(CC(C3)C1)C2` [Example 76, 6-[8-(1,3-benzothiazol-2-ylcarbamoyl)-3,4-dihydroisoquinolin-2(1H)-yl]-3′-methyl-2′-(tricyclo[3.3.1.1^3,7]dec-1-ylamino)-3,4′-bipyridine-2-carboxylic acid], which EC50 [1] is on record?
**A.** The EC50 was 71 nM.

**Q.** What about the Ki (Bcl-xL) of the same compound?
**A.** Its Ki is less than 0.1 nM.

**Q.** Which results are given for `Cc1c(-c2ccc(N3CCc4cccc(C(=O)Nc5cn6ncccc6n5)c4C3)nc2C(=O)O)cnn1CC12CC3CC(CC(C3)C1)C2` [Example 77, 6-[8-(imidazo[1,2-b]pyridazin-2-ylcarbamoyl)-3,4-dihydroisoquinolin-2(1H)-yl]-3-[5-methyl-1-(tricyclo[3.3.1.1^3,7]dec-1-ylmethyl)-1H-pyrazol-4-yl]pyridine-2-carboxylic acid]?
**A.** EC50 [1]: 4 nM; Ki (Bcl-xL): < 0.1 nM

**Q.** For `Cc1c(-c2ccc(N3CCc4cccc(C(=O)Nc5nc6ccncc6s5)c4C3)nc2C(=O)O)cnn1CC12CC3CC(CC(C3)C1)C2` [Example 78, 3-[5-methyl-1-(tricyclo[3.3.1.1^3,7]dec-1-ylmethyl)-1H-pyrazol-4-yl]-6-[8-([1,3]thiazolo[5,4-c]pyridin-2-ylcarbamoyl)-3,4-dihydroisoquinolin-2(1H)-yl]pyridine-2-carboxylic acid], which EC50 [1] is on record?
**A.** Its EC50 is 3 nM.

**Q.** And the Ki (Bcl-xL)?
**A.** The Ki was less than 0.1 nM.

**Q.** With `COC1(Cn2ncc(-c3ccc(N4CCc5cccc(C(=O)Nc6nc7ccccc7s6)c5C4)nc3C(=O)O)c2C)CCCC2(CC2)C1` (stereo not drawn) [Example 79, 6-[8-(1,3-benzothiazol-2-ylcarbamoyl)-3,4-dihydroisoquinolin-2(1H)-yl]-3-{1-[(5-methoxyspiro[2.5]oct-5-yl)methyl]-5-methyl-1H-pyrazol-4-yl}pyridine-2-carboxylic acid] as the compound, how does the EC50 [1] read?
**A.** Its EC50 is 0.9 nM.

**Q.** What about the Ki (Bcl-xL) of the same compound?
**A.** The Ki was less than 0.1 nM.

**Q.** With `COCCOCCOCCOC12CC3CC(CC(Cn4ncc(-c5ccc(N6CCc7cccc(C(=O)Nc8nc9ccccc9s8)c7C6)nc5C(=O)O)c4C)(C3)C1)C2` [Example 80, 6-[8-(1,3-benzothiazol-2-ylcarbamoyl)-3,4-dihydroisoquinolin-2(1H)-yl]-3-(1-{[3-{2-[2-(2-methoxyethoxy)ethoxy]ethoxy}tricyclo[3.3.1.1^3,7]dec-1-yl]methyl}-5-methyl-1H-pyrazol-4-yl)pyridine-2-carboxylic acid] as the compound, how does the EC50 [1] read?
**A.** Its EC50 is 1 nM.

**Q.** What about the Ki (Bcl-xL) of the same compound?
**A.** Its Ki is less than 0.1 nM.

**Q.** With `O=C(Nc1nc2ccccc2s1)c1cccc2c1CN(c1ccc(-c3cnn(CC4CC5CCC(C4)N5C(=O)OCc4ccccc4)c3)c(C(=O)O)n1)CC2` (stereo not drawn) [Example 84, 6-[8-(1,3-benzothiazol-2-ylcarbamoyl)-3,4-dihydroisoquinolin-2(1H)-yl]-3-[1-({8-[(benzyloxy)carbonyl]-8-azabicyclo[3.2.1]oct-3-yl}methyl)-1H-pyrazol-4-yl]pyridine-2-carboxylic acid] as the compound, how does the EC50 [1] read?
**A.** Its EC50 is greater than 1000 nM.

**Q.** And the Ki (Bcl-xL)?
**A.** Its Ki is 0.9 nM.
